{"source": "patent US20230146455A1", "about": "“TREATMENT OF INFLAMMATORY DISEASES WITH PEPTIDES AND PHARMACEUTICAL COMPOSITIONS” (Yuyu Pharma, Inc., priority 2020, published 2023)", "key": {"TNF-alpha": {"test_system": "TNF-alpha", "test": "Example 9 Luminex, LPS hPBMCs: TNF-alpha", "assay_type": "cell-based, human", "conditions": "PBMC + test article 100 uM, no LPS; individual replicates (1st, 2nd)", "experimental": "(§1) Treatment Human PBMCs were pretreated with YY-101, YDE-011 and YDE-043 or reference compound; Xiidra® at various concentration (ranging from 1 nM to 100 uM) for 2 h before stimulation. An equal volume of 0.5% DMSO was used as a vehicle control. Then, the cells were treated with LPS at 5 ug/ml. The supernatants from treated cells were harvested at 24 h and placed in a 96 well for Luminex cytokine & chemokine profiling using a Luminex 200 multiplex assay (Luminex; R&D system, USA).\n(§2) The main study arm with triplicate wells per group in a 24-well plate: • 1. Blank • 2. PBMC: 0.5% DMSO • 3. PBMC+LPS (5 ug/ml) • 4. PBMC+YY-101 100 uM • 5. PBMC+YY-101 10 uM • 6. PBMC+YY-101 1 uM • 7. PBMC+YY-101 0.1 uM • 8. PBMC+YY-101 0.01 uM • 9. PBMC+LPS (5 ug/ml)+Xiidra®100 uM • 10. PBMC+LPS (5 ug/ml)+Xiidra® 10 uM • 11. PBMC+LPS (5 ug/ml)+Xiidra® 1 uM • 12. PBMC+LPS (5 ug/ml)+Xiidra®0.1 uM • 13. PBMC+LPS (5 ug/ml)+Xiidra®0.01 uM • 14. PBMC+LPS (5 ug/ml)+Xiidra®0.001 uM • 15. PBMC+LPS (5 ug/ml)+YY-101 100 uM • 16. PBMC+LPS (5 ug/ml)+YY-101 10 uM • 17. PBMC+LPS (5 ug/ml)+YY-101 1 uM • 18. PBMC+LPS (5 ug/ml)+YY-101 0.1 uM • 19. PBMC+LPS (5 ug/ml)+YY-101 0.01 uM • 20. PBMC+LPS (5 ug/ml)+YY-101 0.001 uM • 21. PBMC+LPS (5 ug/ml)+YDE-011 100 uM • 22. PBMC+LPS (5 ug/ml)+YDE-011 10 uM • 23. PBMC+LPS (5 ug/ml)+YDE-011 1 uM • 24. PBMC+LPS (5 ug/ml)+YDE-011 0.1 uM • 25. PBMC+LPS (5 ug/ml)+YDE-011 0.01 uM • 26. PBMC+LPS (5 ug/ml)+YDE-011 0.001 uM • 27. PBMC+LPS (5 ug/ml)+YDE-043 100 uM • 28. PBMC+LPS (5 ug/ml)+YDE-043 10 uM • 29. PBMC+LPS (5 ug/ml)+YDE-043 1 uM • 30. PBMC+LPS (5 ug/ml)+YDE-043 0.1 uM • 31. PBMC+LPS (5 ug/ml)+YDE-043 0.01 uM • 32. PBMC+LPS (5 ug/ml)+YDE-043 0.001 uM\n(§3) Multiplex assay was used to measure 30 cytokines and chemokines. The 1:2, 1:10 and 1:200 diluted cell supernatant and serial dilution of the standard were dispensed into a 96 well plate at 50 ul/well. Then, the pre-mixed cocktail of antibody-coated magnetic beads was dispensed at 50 ul/well and incubated at room temperature for 2 h in a horizontal orbital microplate shaker at 800±500 rpm. The beads were washed using a magnetic device to prevent loss. The biotin-antibody was dispensed in 50 ul of each well and incubated at room temperature for 1 h in a shaker at 800±500 rpm. After washing, streptavidin-PE was added at 50 ul/well and incubated at room temperature for 30 min in a shaker under the same conditions. Finally, after washing, wash buffer (100 ul/well) was added to the plate and incubated in a shaker for 2 min. The Luminex™ 200 setting were set according to the manufacturer's protocol. The data was calculated with a standard five-parameter logistic nonlinear regression analysis of the data (xPonent software 4.2, USA). The levels of cytokine/chemokine are normalized to the live cell counts (1×10^5 cells/mL) and presented as concentrations per mL (pg/mL or ng/mL)."}, "IL-10": {"test_system": "IL-10", "test": "Example 9 Luminex, LPS hPBMCs: IL-10", "assay_type": "cell-based, human", "conditions": "for Concentration / conc/live cell (pg/10^5): IL-10", "experimental": "as §1, §2, §3"}, "[1]": {"conditions": "PBMC + LPS(5 ug/ml) + test article 0.001 uM, Mean"}, "[2]": {"conditions": "PBMC + LPS(5 ug/ml) + test article 0.001 uM, single replicates"}, "[3]": {"conditions": "PBMC + LPS(5 ug/ml) + test article 0.01 uM, Mean"}, "[4]": {"conditions": "PBMC + LPS(5 ug/ml) + test article 0.01 uM, single replicates"}, "[5]": {"conditions": "PBMC + LPS(5 ug/ml) + test article 0.1 uM, Mean"}, "[6]": {"conditions": "PBMC + LPS(5 ug/ml) + test article 0.1 uM, single replicates"}, "[7]": {"conditions": "PBMC + LPS(5 ug/ml) + test article 1 uM, Mean"}, "[8]": {"conditions": "PBMC + LPS(5 ug/ml) + test article 1 uM, single replicates"}, "[9]": {"conditions": "PBMC + LPS(5 ug/ml) + test article 10 uM, Mean"}, "[10]": {"conditions": "PBMC + LPS(5 ug/ml) + test article 10 uM, single replicates"}, "[11]": {"conditions": "PBMC + LPS(5 ug/ml) + test article 100 uM, Mean"}, "[12]": {"conditions": "PBMC + LPS(5 ug/ml) + test article 100 uM, single replicates"}, "[13]": {"conditions": "PBMC + test article 0.01 uM, no LPS, Mean"}, "[14]": {"conditions": "PBMC + test article 0.01 uM, no LPS, single replicates"}, "[15]": {"conditions": "PBMC + test article 0.1 uM, no LPS, Mean"}, "[16]": {"conditions": "PBMC + test article 0.1 uM, no LPS, single replicates"}, "[17]": {"conditions": "PBMC + test article 10 uM, no LPS, Mean"}, "[18]": {"conditions": "PBMC + test article 10 uM, no LPS, single replicates"}, "[19]": {"conditions": "PBMC + test article 100 uM, no LPS, Mean"}, "[20]": {"conditions": "PBMC + test article 100 uM, no LPS, single replicates"}}, "note": "Where “and” joins values, the source holds several entries; their conditions need not be identical. Equal entries are not always repeated. Where a SMILES comes first, the peptide text is derived from it. [ ]: non-standard residue; d: D form. Hyp = O=C(O)[C@@H]1C[C@@H](O)CN1"}
{"smiles": "CC(C)C[C@H](NC(=O)CNC(=O)[C@H](CC(=O)O)NC(=O)[C@H](CCC(N)=O)NC(=O)CNC(=O)[C@@H]1C[C@@H](O)CN1)C(=O)N[C@@H](C)C(=O)NCC(=O)N1CCC[C@H]1C(=O)N[C@@H](CCCCN)C(=O)O", "note": "[YY-101] (H-[Hyp]GQDGLAGPK-OH; N-terminus and C-terminus assumed)", "values": [{"measurement": "TNF-alpha conc/live cell", "setting": "TNF-alpha", "value": "14.8 pg/10^5 and 7.2 pg/10^5"}, {"measurement": "Concentration", "setting": "IL-10; [1]", "value": 479.4, "unit": "pg/mL"}, {"measurement": "conc/live cell (pg/10^5)", "setting": "IL-10; [1]", "value": 74.9, "unit": "pg/10^5"}, {"measurement": "Concentration", "setting": "IL-10; [2]", "value": "501.5 pg/mL and 488.8 pg/mL and 447.9 pg/mL"}, {"measurement": "conc/live cell (pg/10^5)", "setting": "IL-10; [2]", "value": "88.0 pg/10^5 and 68.9 pg/10^5 and 67.9 pg/10^5"}, {"measurement": "Concentration", "setting": "IL-10; [3]", "value": 499.9, "unit": "pg/mL"}, {"measurement": "conc/live cell (pg/10^5)", "setting": "IL-10; [3]", "value": 81.1, "unit": "pg/10^5"}, {"measurement": "Concentration", "setting": "IL-10; [4]", "value": "492.8 pg/mL and 499.5 pg/mL and 507.4 pg/mL"}, {"measurement": "conc/live cell (pg/10^5)", "setting": "IL-10; [4]", "value": "77.0 pg/10^5 and 83.2 pg/10^5 (2×)"}, {"measurement": "Concentration", "setting": "IL-10; [5]", "value": 445.6, "unit": "pg/mL"}, {"measurement": "conc/live cell (pg/10^5)", "setting": "IL-10; [5]", "value": 76.6, "unit": "pg/10^5"}, {"measurement": "Concentration", "setting": "IL-10; [6]", "value": "426.9 pg/mL and 459.4 pg/mL and 450.6 pg/mL"}, {"measurement": "conc/live cell (pg/10^5)", "setting": "IL-10; [6]", "value": "68.9 pg/10^5 and 88.3 pg/10^5 and 72.7 pg/10^5"}, {"measurement": "Concentration", "setting": "IL-10; [7]", "value": 519.9, "unit": "pg/mL"}, {"measurement": "conc/live cell (pg/10^5)", "setting": "IL-10; [7]", "value": 80.1, "unit": "pg/10^5"}, {"measurement": "Concentration", "setting": "IL-10; [8]", "value": "556.7 pg/mL and 484.8 pg/mL and 518.0 pg/mL"}, {"measurement": "conc/live cell (pg/10^5)", "setting": "IL-10; [8]", "value": "88.4 pg/10^5 and 68.3 pg/10^5 and 83.6 pg/10^5"}, {"measurement": "Concentration", "setting": "IL-10; [9]", "value": 474.4, "unit": "pg/mL"}, {"measurement": "conc/live cell (pg/10^5)", "setting": "IL-10; [9]", "value": 72.3, "unit": "pg/10^5"}, {"measurement": "Concentration", "setting": "IL-10; [10]", "value": "464.8 pg/mL and 537.1 pg/mL and 421.4 pg/mL"}, {"measurement": "conc/live cell (pg/10^5)", "setting": "IL-10; [10]", "value": "77.5 pg/10^5 and 83.9 pg/10^5 and 55.4 pg/10^5"}, {"measurement": "Concentration", "setting": "IL-10; [11]", "value": 172.4, "unit": "pg/mL"}, {"measurement": "conc/live cell (pg/10^5)", "setting": "IL-10; [11]", "value": 29.9, "unit": "pg/10^5"}, {"measurement": "Concentration", "setting": "IL-10; [12]", "value": "173.5 pg/mL and 168.6 pg/mL and 175.1 pg/mL"}, {"measurement": "conc/live cell (pg/10^5)", "setting": "IL-10; [12]", "value": "27.5 pg/10^5 and 27.2 pg/10^5 and 35.0 pg/10^5"}, {"measurement": "Concentration", "setting": "IL-10; [13]", "value": 4.3, "unit": "pg/mL"}, {"measurement": "conc/live cell (pg/10^5)", "setting": "IL-10; [13]", "value": 0.5, "unit": "pg/10^5"}, {"measurement": "Concentration", "setting": "IL-10; [14]", "value": 4.3, "unit": "pg/mL"}, {"measurement": "conc/live cell (pg/10^5)", "setting": "IL-10; [14]", "value": "0.0 pg/10^5 and 0.9 pg/10^5"}, {"measurement": "Concentration", "setting": "IL-10; [15]", "value": 4.3, "unit": "pg/mL"}, {"measurement": "conc/live cell (pg/10^5)", "setting": "IL-10; [15]", "value": 0.4, "unit": "pg/10^5"}, {"measurement": "Concentration", "setting": "IL-10; [16]", "value": 4.3, "unit": "pg/mL"}, {"measurement": "conc/live cell (pg/10^5)", "setting": "IL-10; [16]", "value": "0.0 pg/10^5 and 0.7 pg/10^5"}, {"measurement": "conc/live cell (pg/10^5)", "setting": "IL-10; PBMC + test article 1 uM, no LPS, Mean", "value": 0.0, "unit": "pg/10^5"}, {"measurement": "conc/live cell (pg/10^5)", "setting": "IL-10; PBMC + test article 1 uM, no LPS, single replicates", "value": 0.0, "unit": "pg/10^5"}, {"measurement": "Concentration", "setting": "IL-10; [17]", "value": 12.6, "unit": "pg/mL"}, {"measurement": "conc/live cell (pg/10^5)", "setting": "IL-10; [17]", "value": 2.0, "unit": "pg/10^5"}, {"measurement": "Concentration", "setting": "IL-10; [18]", "value": "23.2 pg/mL and 2.0 pg/mL"}, {"measurement": "conc/live cell (pg/10^5)", "setting": "IL-10; [18]", "value": "3.6 pg/10^5 and 0.3 pg/10^5"}, {"measurement": "Concentration", "setting": "IL-10; [19]", "value": 8.2, "unit": "pg/mL"}, {"measurement": "conc/live cell (pg/10^5)", "setting": "IL-10; [19]", "value": 0.6, "unit": "pg/10^5"}, {"measurement": "Concentration", "setting": "IL-10; [20]", "value": 8.2, "unit": "pg/mL"}, {"measurement": "conc/live cell (pg/10^5)", "setting": "IL-10; [20]", "value": "1.3 pg/10^5 and 0.0 pg/10^5"}, {"measurement": "LPS-induced IL-10 (in words)", "setting": "IL-10; LPS 5 ug/mL 24 hrs, 100 uM to 1 nM", "value": "significantly reduced"}]}
